Reference: PMC7835894 (Molecules, 2021)

Experiments:
[1] = tested on: Caco-2 cells; experiment: Total antioxidant capacity (TAC/TAO); assay type: cell-based, human; settings: Caco-2 cell lysate, IC50 concentration, 24 h; solvent control 32.6 ± 0.21
Experimental: Total antioxidant capacity was assayed spectrophotometrically using a Biodiagnostics® kit (Catalogue number TA 25 13, Biodiagnostics, Cairo, Egypt). […] The measurement of total antioxidants is based on treating the cell lysate with a known excess of H2O2 (50 µM). A certain amount of H2O2, equivalent to TAC, is eliminated leaving a residual amount of H2O2 that is quantified colorimetrically by the enzymatic conversion of 3, 5, dichloro-2-hydroxy benzene sulphonate to a colored product.

[2] = tested on: Caco-2 cells; experiment: Transwell cell invasion assay; assay type: cell-based, human; settings: IC50 concentration; for inhibition in Caco-2 cell invasion compared to control: 24 h; for percentage inhibition of Caco-2 cell invasion: 48 h
Experimental: Caco-2 cell invasion was assessed using a QCM™ 24-well Colorimetric Cell Invasion Assay kit (Chemicon International, Temecula, CA, USA (Cat # ECM551)), according to the manufacturer’s instructions. Cells were starved of serum for 24 h. […] Inserts were further added into a 24-well plate containing 500 µL of 10% FBS-containing DMEM per well. After incubation for 24 or 48 h at 37 °C, remaining media was removed from the invasion chamber, and cells that had migrated to the other side of the membrane were stained with “Cell Stain” solution for 20 min at room temperature. Non-invaded cells were carefully removed from the upper side of the chamber with the help of cotton-tipped swabs. The stain of invaded cells was then extracted by 200 µL of extraction buffer in a clean well for 15 min at room temperature. Finally, 100 µL extracted stained solution was transferred into a 96-well plate and the optical density was measured at 490 nm with BioTek 800 TS microplate reader.

[3] = tested on: A549; experiment: MTT antiproliferation assay; assay type: cell-based, human; settings: for IC50: Homo sapiens, A549, MTT, 24 h, mean ± SEM; for SI (selectivity index): A549, SI = IC50 (WI-38)/IC50 (cancer cell line)
Experimental: (§1) The antiproliferation and cytotoxicity were assessed using 3-(4,5-dimethylthiazol-2-yl)-2,5-diphenyltetrazolium bromide (MTT, Serva) colorimetric assay. To investigate the antiproliferation, all cell lines were seeded at a density of 20,000 cells per well in 96-well plates and allowed to adhere overnight. […] These concentrations were prepared by diluting the stock solutions with serum-free culture media. The negative control cells were those treated with 0.1% DMSO solvent alone. The treated cells were handled in reduced light and maintained under standard culture growth conditions for 24 h. After the incubation period, MTT powder was prepared as a stock solution (5 mg/mL) and 20 μL of the MTT working reagent (final concentration 0.5 mg/mL) was added to each well. This was followed by incubation with MTT reagent for 4 h in a humidified atmosphere (37 °C, 5% CO2) with subsequent addition of 150 μL of DMSO solubilizing solvent and incubation for 20 min. The absorbance of solubilized violet formazan crystals was measured at 540 nm with Biotek 800 TS microplate reader. IC50 was calculated as the concentration of retinoid that produced 50% cell growth inhibition. For cytotoxicity assessment, WI-38 normal human fibroblast cells were used for the calculation of SI which is the ratio of IC50 retinoid (WI-38)/IC50 retinoid (cancer cell line).

[4] = tested on: Caco-2; experiment: MTT antiproliferation assay; assay type: cell-based, human; settings: for IC50: Homo sapiens, Caco-2, MTT, 24 h, single agent, mean ± SEM; for SI (selectivity index): Caco-2, SI = IC50 (WI-38)/IC50 (cancer cell line)
Experimental: as §1

[5] = tested on: Huh7; experiment: MTT antiproliferation assay; assay type: cell-based, human; settings: for IC50: Homo sapiens, Huh-7, Huh7, MTT, 24 h, mean ± SEM; for SI (selectivity index): Huh7, SI = IC50 (WI-38)/IC50 (cancer cell line)
Experimental: as §1

[6] = tested on: PC3; experiment: MTT antiproliferation assay; assay type: cell-based, human; settings: for IC50: Homo sapiens, PC-3, PC3, MTT, 24 h, mean ± SEM; for SI (selectivity index): PC3, SI = IC50 (WI-38)/IC50 (cancer cell line)
Experimental: as §1

[7] = tested on: HepG2; experiment: MTT antiproliferation assay; assay type: cell-based, human; settings: for IC50: Homo sapiens, HepG2, MTT, 24 h, mean ± SEM; for SI (selectivity index): HepG2, SI = IC50 (WI-38)/IC50 (cancer cell line)
Experimental: as §1

[8] = tested on: MDA-MB 231; experiment: MTT antiproliferation assay; assay type: cell-based, human; settings: for IC50: Homo sapiens, MDA-MB 231, MTT, 24 h, mean ± SEM; for SI (selectivity index): MDA-MB 231, SI = IC50 (WI-38)/IC50 (cancer cell line)
Experimental: as §1

[9] = tested on: Caco-2 cells; experiment: Annexin V-FITC/PI apoptosis assay (flow cytometry); assay type: cell-based, human; settings: Caco-2, IC50 concentration
Experimental: The ability of synthetic retinoids to induce apoptosis in one of the sensitive cancer cell lines (namely, Caco-2 cells) was detected by Annexin V-FITC and PI according to the protocol of the detection kit (Beckman Coulter, Brea, CA, USA). […] Cells were collected, washed with phosphate-buffered saline (PBS) (Lonza), and resuspended in 1 mL of binding buffer. 100 µL cell suspension was incubated with 1 µL FITC-labeled Annexin V and 5 µL PI for 15 min at 4 °C in the dark. Finally, 400 µL ice-cold binding buffer was added, and the apoptotic cells in each sample were analyzed by Beckman Coulter Epics XL flow cytometer. Apoptotic index (AI) was calculated as the number of apoptotic cell deaths expressed as a percentage from the total gated cells.

[10] = tested on: WI-38; experiment: MTT antiproliferation/cytotoxicity assay; assay type: cell-based, human; settings: for IC50: Homo sapiens, WI-38 normal cells, MTT, 24 h, mean ± SEM; for SI (selectivity index): WI-38, SI = IC50 (WI-38)/IC50 (cell line)
Experimental: as §1

[11] = tested on: Caco-2 cells; experiment: Intracellular and secreted glutamate assay; assay type: cell-based, human; settings: Caco-2, IC50 doses, 24 h
Experimental: The glutamate assay was performed using the Glutamate Assay Kit (Sigma-Aldrich, MAK004, St. Louis, MO, USA) according to the manufacturer’s protocol. […] Cells were lysed using 100 µL glutamate assay buffer and insoluble cell debris was then removed by centrifugation at 13,000× g for 10 min. The supernatant was transferred to a 10-KDa molecular weight cut-off (MWCO) spin filter (Sigma-Aldrich, St. Louis, MO, USA) to remove any particulates in the sample, and then was brought to a final volume of 50 µL with glutamate assay buffer and transferred to a 96-well plate. Finally, 100 µL of reaction mix was added to each well and the mixture was incubated for 30 min at 37 °C. The optical density was measured at 450 nm using BioTek 800 TS microplate reader (BioTek, Winooski, VT, USA). For the measurement of secreted glutamate, 50 μL samples of extracellular culture medium were placed in a 96-well plate and the kit’s enzymatic reaction mix was added to induce a glutamate-dependent color change. After 30 min incubation, the reaction products were read at the same wavelength. For determination of glutamate concentration (nmole/µL), a calibration curve was constructed using supplied 0.1 M glutamate standard with different dilutions (0 (blank), 2, 4, 6, 8 and 10 nmole per well). Glutamate concentration was measured according to the manufacturer’s instruction and as documented in earlier studies.

[12] = tested on: Vero; experiment: MTT antiproliferation/cytotoxicity assay; assay type: cell-based, African green monkey; settings: Chlorocebus sabaeus, Vero normal cells, 24 h, mean ± SEM
Experimental: as §1

| inhibition in Caco-2 cell invasion compared to control [2] | percentage inhibition of Caco-2 cell invasion [2] | IC50 [3] | IC50 [4] | IC50 [5] | IC50 [6] | IC50 [7] | IC50 [8] | SMILES | Total antioxidant activity (TAO) [1] | % early apoptotic cells (C+−) ([9]; 12 h treatment) | % late apoptotic cells (C−+) ([9]; 12 h treatment) | % necrotic cells (C++) ([9]; 12 h treatment) | % viable cells (C−−) ([9]; 12 h treatment) | % early apoptotic cells (C+−) ([9]; 24 h treatment) | % late apoptotic cells (C−+) ([9]; 24 h treatment) | % necrotic cells (C++) ([9]; 24 h treatment) | % viable cells (C−−) ([9]; 24 h treatment) | IC50 [10] | released (extracellular) glutamate, magnitude of reduction [11] | IC50 [12] | other results |
| --- | --- | --- | --- | --- | --- | --- | --- | --- | --- | --- | --- | --- | --- | --- | --- | --- | --- | --- | --- | --- | --- |
| 3.8% | 8.6% | 84.7 ± 3.2 µM | 58 ± 1 µM | > 100 µM | > 100 µM | 36.2 ± 1.9 µM | > 100 µM | CC1=C(/C=C/C(C)=C/C=C/C(C)=C/C(=O)O)C(C)(C)CCC1 [ATRA, All-trans retinoic acid, reference compound] | 62.6 ± 0.15 µM/L | 11.99 ± 1.9% | 0.00% | 0.01% | 87.99 ± 15.0% | 47.4 ± 2.5 % | 0.0% | 0.28± 0.17% | 52.4 ± 11.5 % | 34 ± 1.1 µM | 24.1% | > 100 µM | – |
| 7.2% | 17.2% | > 100 µM | 10.8 ± 0.1 µM | > 100 µM | > 100 µM | 42.2 ± 0.92 µM | > 100 µM | CC1(C)CCC(C)(C)c2cc(C#Cc3cccc(C(=O)O)c3)ccc21 [EC19, 3-(5,5,8,8-tetramethyl-5,6,7,8-tetrahydronaphthalen-2-ylethynyl) benzoic acid] | 22.6 ± 0.024 µM/L | 6.30 ± 1.1% | 0.01% | 0.4 ± 0.1% | 93.65 ± 14.0% | 75.3 ± 13.8 % | 0.0% | 0.18 ± 0.05% | 24.5 ± 11.8 % | 48.4 ± 1.2 µM | 1.4% | > 100 µM | SI (selectivity index) [3]: <1; SI (selectivity index) [4]: 4.5 ± 0.01; SI (selectivity index) [5]: 0.14 ±0.01; SI (selectivity index) [6]: <1; SI (selectivity index) [7]: 1.2 ± 0.002; SI (selectivity index) [8]: <1; % Apoptotic index (AI) ([9]; 12 h treatment): 6.3%; SI (selectivity index) [10]: 1 |
| 4.8% | 15.8% | > 100 µM | 14.7 ± 0.73 µM | > 100 µM | > 100 µM | 0.74 ± 0.001 µM | > 100 µM | CC1(C)CCC(C)(C)c2cc(C#Cc3ccc(C(=O)O)cc3)ccc21 [EC23, 4-(5,5,8,8-tetramethyl-5,6,7,8-tetrahydronaphthalen-2-ylethynyl) benzoic acid] | 22.6 ± 0.024 µM/L | 8.34 ± 1.1% | 0.01% | 0.05% | 91.61 ± 13.7% | 65.4 ± 18.4 % | 0.0% | 0.16 ± 0.14% | 34.4 ± 18.3 % | 8.01 ± 0.13 µM | 5% | 35.2 ± 1.02 µM | SI (selectivity index) [3]: <1; SI (selectivity index) [4]: 0.54 ±0.01; SI (selectivity index) [5]: 0.02 ± 0.001; SI (selectivity index) [6]: <1; SI (selectivity index) [7]: 10.82 ± 1.0; SI (selectivity index) [8]: <1; % Apoptotic index (AI) ([9]; 12 h treatment): 8.3%; SI (selectivity index) [10]: 1 |
